Data published in ChEMBL document CHEMBL4834465, “Potent SARS-CoV-2 mRNA Cap Methyltransferase Inhibitors by Bioisosteric Replacement of Methionine in SAM Cosubstrate” (ACS Med Chem Lett, 2021).

Assays:
[1] = molecular target: T1, Glycine N-methyltransferase (Homo sapiens, UniProt Q14749); assay: Inhibition of N-terminal His-tagged human recombinant Glycine-N-methyltransferase (1 to 295 residues) expressed in Escherichia coli using glycine and SAM as substrate incubated for 30 mins by HTRF assay
T1 sequence (Q14749 whole entry): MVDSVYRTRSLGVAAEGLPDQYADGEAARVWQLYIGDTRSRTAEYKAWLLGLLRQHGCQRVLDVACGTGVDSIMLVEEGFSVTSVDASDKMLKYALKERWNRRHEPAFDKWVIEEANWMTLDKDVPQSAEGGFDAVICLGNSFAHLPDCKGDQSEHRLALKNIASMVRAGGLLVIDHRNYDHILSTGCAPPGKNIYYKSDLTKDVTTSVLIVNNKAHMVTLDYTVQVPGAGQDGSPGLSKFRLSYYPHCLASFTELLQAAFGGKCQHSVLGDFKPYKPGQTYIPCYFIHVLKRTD

[2] = mouse, balb/3t3 clone a31, 48 h
A549 = details: human, a549, 48 h
HepG2 = details: human, hepg2, 48 h

Structure (SMILES)	IC50 ([1]; read-out: IC50)	CC50 [2]	CC50 (A549)	CC50 (HepG2)	IC50 [1]
Nc1ncnc2c1ncn2[C@@H]1O[C@H](CSCc2cc(O)[nH]n2)[C@@H](O)[C@H]1O	640 nM	> 200 µM	> 200 µM	> 100 µM	–
Nc1ncnc2c1ncn2[C@@H]1O[C@H](CSc2cccc(C(=O)O)c2)[C@@H](O)[C@H]1O	150 nM	> 200 µM	> 200 µM	> 100 µM	–
Nc1ncnc2c1ncn2[C@@H]1O[C@H](C(=O)N2CCN(CC(=O)O)CC2)[C@@H](O)[C@H]1O	240000 nM	–	–	–	–
Nc1ncnc2c1ncn2[C@@H]1O[C@H](C(=O)Nc2cccc(C(=O)O)c2)[C@@H](O)[C@H]1O	2200 nM	> 200 µM	> 200 µM	> 100 µM	–
Nc1ncnc2c1ncn2[C@@H]1O[C@H](CN(CCCC(=O)O)CCc2ccccc2)[C@@H](O)[C@H]1O	2700 nM	> 200 µM	> 200 µM	> 100 µM	–
Nc1ncnc2c1ncn2[C@@H]1O[C@H](CSCCc2c[nH]nn2)[C@@H](O)[C@H]1O	390 nM	> 200 µM	> 200 µM	> 100 µM	–
Nc1ncnc2c1ncn2[C@@H]1O[C@H](CNCCc2ccccc2)[C@@H](O)[C@H]1O	207000 nM	–	–	–	–
Nc1ncnc2c1ncn2[C@@H]1O[C@H](CNCc2cc[nH]n2)[C@@H](O)[C@H]1O	–	–	–	–	Not Active
Nc1ncnc2c1ncn2[C@@H]1O[C@H](CSCc2cccc(C(=O)O)c2)[C@@H](O)[C@H]1O	8.6 nM	> 200 µM	> 200 µM	> 100 µM	–
Nc1ncnc2c1ncn2[C@@H]1O[C@H](CSCc2ccc3ccccc3c2)[C@@H](O)[C@H]1O	260 nM	> 200 µM	> 200 µM	> 100 µM	–
Nc1ncnc2c1ncn2[C@@H]1O[C@H](C[C@@H](N)CC[C@H](N)C(=O)O)[C@@H](O)[C@H]1O [SINEFUNGIN]	–	99.2 µM	72.9 µM	> 100 µM	–
